Data on one compound can be found in patent US20150132813A1, “BIOSYNTHETIC PATHWAYS, RECOMBINANT CELLS, AND METHODS” (REGENTS OF THE UNIVERSITY OF MINNESOTA, priority 2012, published 2015).

By Km is commonly meant the substrate concentration at which the rate is half of its maximum. For orientation: kcat means the number of substrate molecules converted per active site and unit of time at saturation.

This assay relates to α-ketoglutaric semialdehyde dehydrogenase KDHba. The assay is described as follows: Enzymatic assay of KDHba (NADH absorbance at 340 nm). Format: biochemical, Burkholderia ambifaria.
The mark [1] stands for this setting: substrate of KDHba, pH 8.0, 0.5 mM NAD+.

As for `CCCCC=O` [Valeraldehyde, valeraldehyde], under setting [1], the Km is 31 µM and the kcat was 8.69 ± 0.26 s⁻¹. The “specificity constant (kcat/KM) of KDHba, fold higher than toward isobutyraldehyde” value (versus isobutyraldehyde) turned out to be 1260 fold. The “specificity constant (kcat/KM) of KDHba, fold higher than toward isovaleraldehyde” value (versus isovaleraldehyde) is 308 fold.
